From ChEMBL document CHEMBL6087415, “Discovery of new fungal jumonji H3K27 demethylase inhibitors for the treatment of Cryptococcus neoformans and Candida auris infections” (Eur J Med Chem, 2025)
Values after ≈ are worked out from the molar mass of the structure shown. Active and inactive are the calls of the source. No cut-off for these calls is given here.

Legend:
[Candida] auris [1] = Fungicidal activity against Candida auris 0029; format: functional; conditions: Candidozyma auris
[Candida] auris [2] = Antibiofilm activity against Candida auris 0029 assessed as inhibition of biofilm formation upto […] microg/ml incubated for 24 hrs by XTT reduction assay; format: functional, organism-based; conditions: Candidozyma auris, dose <= 64.0 µg/ml
Cryptococcus neoformans [3] = assay: Antifungal activity against Cryptococcus neoformans H99 assessed as reduction in fungal growth incubated for 72 hrs in presence of 10 uM Fe2+; format: functional
Cryptococcus neoformans [4] = assay: Antibiofilm activity against Cryptococcus neoformans H99 assessed as appearance of blurred capsule at 4 microg/ml measured for 48 hrs by SEM analysis; format: functional, organism-based; conditions: dose 4.0 µg/ml
Cryptococcus neoformans [5] = assay: Antifungal activity against Cryptococcus neoformans H99 assessed as reduction in fungal growth incubated for 72 hrs in presence of 5 uM Fe2+; format: functional
[6] = Cytotoxicity against HUVEC cells; format: toxicity, cell-based; conditions: human
Cryptococcus neoformans [7] = assay: Antifungal activity against Cryptococcus neoformans H99 assessed as reduction in fungal growth incubated for 72 hrs in presence of 40 uM Fe2+; format: functional
[8] = Metabolic stability in mouse liver microsome assessed as half life; format: ADME; conditions: liver microsomes
[Candida] auris [9] = Synergistic antifungal activity against Candida auris 0029 assessed as inhibition of fungal growth incubated in presence of fluconazole; format: functional, organism-based; conditions: Candidozyma auris
[10] = Hemolytic activity in rabbit erythrocytes assessed as hemolysis at 10 to 100 uM relative to control; format: toxicity, cell-based, Oryctolagus cuniculus, Erythrocyte; conditions: dose 10-100 µM, read-out: Activity
[11] = Solubility of compound in MeOH/H2O at pH 7 by HPLC analysis; format: physicochemical
Cryptococcus neoformans [12] = assay: Antibiofilm activity against Cryptococcus neoformans H99 assessed as inhibition of biofilm formation upto […] microg/ml incubated for 24 hrs by XTT reduction assay; format: functional, organism-based; conditions: dose <= 64.0 µg/ml
Cryptococcus neoformans [13] = assay: Fungicidal activity against Cryptococcus neoformans H99; format: functional
Candida albicans = assay: Synergistic antifungal activity against Candida albicans assessed as inhibition of fungal growth incubated in presence of fluconazole; format: functional, organism-based
Cryptococcus neoformans [14] = assay: Antibiofilm activity against Cryptococcus neoformans H99 assessed as appearance of surface collapse at 4 to 16 microg/ml measured for 48 hrs by SEM analysis; format: functional, organism-based; conditions: dose 4-16 µg/ml
Cryptococcus neoformans [15] = assay: Antifungal activity against Cryptococcus neoformans H99 infected in ICR mouse assessed as reduction in fungal burden in brain at 2 to 5 mg/kg, ip administered for 5 days; format: functional, organism-based; conditions: dose 2-5 mg/kg, time 5.0 day
Cryptococcus neoformans [16] = assay: Antibiofilm activity against Cryptococcus neoformans H99 assessed as inhibition of capsule formation at 1 microg/ml incubated for 48 hrs by laser confocal microscopic analysis; format: functional, organism-based; conditions: dose 1.0 µg/ml
[Candida] auris [17] = Antifungal activity against Candida auris 0029 assessed as reduction in fungal growth; format: functional; conditions: Candidozyma auris
Cryptococcus neoformans [18] = assay: Antifungal activity against Cryptococcus neoformans H99 assessed as reduction in fungal growth; format: functional
[19] = Inhibition of Candida auris 0029 JMJD3 by absorbance based analysis; parameters: species or system Candidozyma auris
Cryptococcus neoformans [20] = assay: Antifungal activity against Cryptococcus neoformans H99 assessed as reduction in fungal growth incubated for 72 hrs in presence of 20 uM Fe2+; format: functional
Cryptococcus neoformans [21] = assay: Effect on sterol composition in Cryptococcus neoformans H99 assessed as ergosterol content at 1 microg/ml measured after 24 hrs by GC-MS analysis (reference value: 58.53%); format: functional; conditions: dose 1 µg/ml
[Candida] auris [22] = Effect on sterol composition in Candida auris 0029 assessed as other sterols content at 1 microg/ml measured after 24 hrs by GC-MS analysis; format: functional, Candidozyma auris; conditions: dose 1 µg/ml
[Candida] auris [23] = Antibiofilm activity against Candida auris 0029 assessed as inhibition of biofilm formation at 4 to 64 microg/ml incubated for 24 hrs by XTT reduction assay; format: functional, organism-based; conditions: Candidozyma auris, dose 4-64 µg/ml
[Candida] auris [24] = Induction of morphological changes in Candida auris 0029 assessed as cell membrane damage by TEM analysis; format: functional, organism-based; conditions: Candidozyma auris
[25] = Inhibition of Cryptococcus neoformans H99 JMJD3 by absorbance based analysis
[Candida] auris [26] = Induction of morphological changes in Candida auris 0029 assessed as cell wall damage by TEM analysis; format: functional, organism-based; conditions: Candidozyma auris
Cryptococcus neoformans [27] = assay: Antifungal activity against Cryptococcus neoformans H99 assessed as inhibition of cell growth at 4 microg/ml measured for 72 hrs; format: functional, organism-based; conditions: dose 4.0 µg/ml
[Candida] auris [28] = Antifungal activity against Candida auris 0029 assessed as inhibition of cell growth at 16 microg/ml measured for 72 hrs; format: functional; conditions: Candidozyma auris
Cryptococcus neoformans [29] = assay: Induction of morphological changes in Cryptococcus neoformans H99 assessed as damaged cell membrane at 1 to 4 microg/ml by TEM analysis; format: functional, organism-based; conditions: dose 1-4 µg/ml
[Candida] auris [30] = Antifungal activity against Candida auris 0029 infected in ICR mouse assessed as reduction in fungal burden in kidney at 2 to 5 mg/kg, ip administered for 5 days; format: functional, organism-based; conditions: Candidozyma auris, dose 2-5 mg/kg, time 5.0 day
Cryptococcus neoformans [31] = assay: Effect on sterol composition in Cryptococcus neoformans H99 assessed as other sterols content at 1 microg/ml measured after 24 hrs by GC-MS analysis (reference value: 41.47%); format: functional; conditions: dose 1 µg/ml
Cryptococcus neoformans [32] = assay: Induction of morphological changes in Cryptococcus neoformans H99 assessed as sparse capsule at 1 to 4 microg/ml by TEM analysis; format: functional, organism-based; conditions: dose 1-4 µg/ml
Cryptococcus neoformans [33] = assay: Antibiofilm activity against Cryptococcus neoformans H99 assessed as inhibition of biofilm formation at 1 microg/ml incubated for 24 hrs by XTT reduction assay; format: functional, organism-based; conditions: dose 1.0 µg/ml
Cryptococcus neoformans [34] = assay: Antifungal activity against Cryptococcus neoformans H99 assessed as reduction in fungal growth incubated for 72 hrs in presence of 1 uM Fe2+; format: functional
[35] = Metabolic stability in mouse liver microsome assessed as clearance; format: ADME; conditions: liver microsomes, read-out: CLH
[Candida] auris [36] = Antifungal activity against Candida auris ATCC 15448 assessed as reduction in fungal growth; format: functional; conditions: Candidozyma auris
[Candida] auris [37] = Antibiofilm activity against Candida auris 0029 assessed as appearance of surface collapse at 4 to 16 microg/ml measured for 48 hrs by SEM analysis; format: functional, organism-based; conditions: Candidozyma auris, dose 4-16 µg/ml
Cryptococcus neoformans [38] = assay: Antifungal activity against Cryptococcus neoformans H99 assessed as reduction in fungal growth incubated for 72 hrs in presence of 80 uM Fe2+; format: functional
[Candida] auris [39] = Effect on sterol composition in Candida auris 0029 assessed as ergosterol content at 1 microg/ml measured after 24 hrs by GC-MS analysis (reference value: 100 %); format: functional, Candidozyma auris; conditions: dose 1 µg/ml
Cryptococcus neoformans [40] = assay: Antibiofilm activity against Cryptococcus neoformans H99 assessed as inhibition of capsule formation at 4 microg/ml incubated for 48 hrs by laser confocal microscopic analysis; format: functional, organism-based; conditions: dose 4.0 µg/ml
[Candida] auris [41] = Antibiofilm activity against Candida auris 0029 assessed as inhibition of biofilm formation at 64 microg/ml incubated for 24 hrs by XTT reduction assay; format: functional; conditions: Candidozyma auris, dose 64.0 µg/ml
Cryptococcus neoformans [42] = assay: Antifungal activity against Cryptococcus neoformans H99 assessed as inhibition of cell growth at 16 microg/ml measured for 72 hrs; format: functional, organism-based; conditions: dose 16.0 µg/ml
Cryptococcus neoformans [43] = assay: Effect on sterol composition in Cryptococcus neoformans H99 assessed as lanosterol content at 1 microg/ml measured after 24 hrs by GC-MS analysis; format: functional; conditions: dose 1 µg/ml
Cryptococcus neoformans [44] = assay: Effect on sterol composition in Cryptococcus neoformans H99 assessed as eburicol content at 1 microg/ml measured after 24 hrs by GC-MS analysis; format: functional; conditions: dose 1 µg/ml

COc1ccc(NN=C(c2ccccn2)c2ccccn2)nc1
MFC ([Candida] auris [1]): 64 µg/mL (≈ 210 µM)
Activity ([Candida] auris [2]): Active
MIC (Cryptococcus neoformans [3]): 8 µg/mL
Activity (Cryptococcus neoformans [4]): Active
MIC (Cryptococcus neoformans [5]): 4 µg/mL
IC50 [6]: 246 nM
MIC (Cryptococcus neoformans [7]): 16 µg/mL
half-life [8]: 50.6 min
Activity ([Candida] auris [9]): inactive
hemolysis at 100 µM [10]: < 3%
solubility [11]: 79.2 µg/mL (≈ 259 µM)
Activity (Cryptococcus neoformans [12]): Active
MFC (Cryptococcus neoformans [13]): 8 µg/mL (≈ 26.2 µM)
Activity (Candida albicans): inactive
Activity (Cryptococcus neoformans [14]): Active
Activity (Cryptococcus neoformans [15]): Active
Activity (Cryptococcus neoformans [16]): Active
MIC80 ([Candida] auris [17]): 2 µg/mL (≈ 6.55 µM)
MIC80 (Cryptococcus neoformans [18]): 0.5 µg/mL (≈ 1.64 µM)
IC50 [19]: 12 nM
MIC (Cryptococcus neoformans [20]): 16 µg/mL
Activity (Cryptococcus neoformans [21]): 43.82%
Activity ([Candida] auris [22]): 43.07%
Activity ([Candida] auris [23]): Active
Activity ([Candida] auris [24]): Active
IC50 [25]: 134 nM
Activity ([Candida] auris [26]): Active
Activity (Cryptococcus neoformans [27]): Active
inhibition at 16 µg/mL ([Candida] auris [28]): 100%
Activity (Cryptococcus neoformans [29]): Active
Activity ([Candida] auris [30]): Active
Activity (Cryptococcus neoformans [31]): 41.52%
Activity (Cryptococcus neoformans [32]): Active
Activity (Cryptococcus neoformans [33]): Active
MIC (Cryptococcus neoformans [34]): 2 µg/mL
CLint scaled [35]: 108 mL/min/kg
MIC80 ([Candida] auris [36]): 0.125 µg/mL (≈ 0.409 µM)
Activity ([Candida] auris [37]): Active
MIC (Cryptococcus neoformans [38]): 32 µg/mL
Activity ([Candida] auris [39]): 56.93%

Clc1ccc(N/N=C(/c2ccc(Cl)cc2)c2ccccn2)cc1
MIC80 ([Candida] auris [17]): 64 µg/mL (≈ 187 µM)
MIC80 (Cryptococcus neoformans [18]): 32 µg/mL (≈ 93.5 µM)
MIC80 ([Candida] auris [36]): 64 µg/mL (≈ 187 µM)

Clc1ccc(N/N=C(\c2ccccc2)c2ccccn2)cc1
MIC80 ([Candida] auris [17]): > 64 µg/mL
MIC80 (Cryptococcus neoformans [18]): 32 µg/mL (≈ 104 µM)
MIC80 ([Candida] auris [36]): > 64 µg/mL

N#Cc1ccc(NN=C(c2ccccn2)c2ccccn2)nc1
solubility [11]: 3.93 µg/mL (≈ 13.1 µM)
MIC80 ([Candida] auris [17]): 2 µg/mL (≈ 6.66 µM)
MIC80 (Cryptococcus neoformans [18]): 0.5 µg/mL (≈ 1.66 µM)
MIC80 ([Candida] auris [36]): 0.125 µg/mL (≈ 0.416 µM)

FC(F)(F)c1ccc(NN=C(c2ccccn2)c2ccccn2)cc1
MIC80 ([Candida] auris [17]): > 64 µg/mL
MIC80 (Cryptococcus neoformans [18]): 16 µg/mL (≈ 46.7 µM)
MIC80 ([Candida] auris [36]): > 64 µg/mL

O=c1n(-c2ccccn2)c2ccccc2n1-c1ccc(Cl)cn1
MIC80 ([Candida] auris [17]): > 64 µg/mL
MIC80 (Cryptococcus neoformans [18]): 64 µg/mL (≈ 198 µM)
MIC80 ([Candida] auris [36]): > 64 µg/mL

OC(Cn1cncn1)(Cn1cncn1)c1ccc(F)cc1F [FLUCONAZOLE]
Activity ([Candida] auris [1]): inactive
MIC (Cryptococcus neoformans [3]): 4 µg/mL
MIC (Cryptococcus neoformans [5]): 2 µg/mL
MIC (Cryptococcus neoformans [7]): 4 µg/mL
Activity (Cryptococcus neoformans [13]): inactive
Activity (Cryptococcus neoformans [40]): inactive
Activity ([Candida] auris [41]): inactive
Activity (Cryptococcus neoformans [42]): Active
MIC80 ([Candida] auris [17]): > 64 µg/mL
MIC80 (Cryptococcus neoformans [18]): 2 µg/mL (≈ 6.53 µM)
MIC (Cryptococcus neoformans [20]): 4 µg/mL
Activity (Cryptococcus neoformans [21]): 42.51%
Activity (Cryptococcus neoformans [43]): 4.24%
Activity (Cryptococcus neoformans [44]): 48.28%
Activity ([Candida] auris [28]; dose 16.0 µg/ml): inactive
Activity (Cryptococcus neoformans [31]): 4.97%
MIC (Cryptococcus neoformans [34]): 2 µg/mL
MIC80 ([Candida] auris [36]): 16 µg/mL (≈ 52.2 µM)
MIC (Cryptococcus neoformans [38]): 4 µg/mL
Activity ([Candida] auris [39]): 100%

COc1ccc(N/N=C(\c2ccccc2)c2ccccn2)nc1
MIC80 ([Candida] auris [17]): 2 µg/mL (≈ 6.57 µM)
MIC80 (Cryptococcus neoformans [18]): 0.5 µg/mL (≈ 1.64 µM)
MIC80 ([Candida] auris [36]): 0.125 µg/mL (≈ 0.411 µM)

O=c1c2ccccc2c(-c2ccccn2)nn1-c1ccc(Cl)cn1
MIC80 ([Candida] auris [17]): > 64 µg/mL
MIC80 (Cryptococcus neoformans [18]): 64 µg/mL (≈ 191 µM)
MIC80 ([Candida] auris [36]): > 64 µg/mL

Clc1ccc(/C(=N\Nc2ccc(Cl)cn2)c2ccccn2)cc1
MIC80 ([Candida] auris [17]): 2 µg/mL (≈ 5.83 µM)
MIC80 (Cryptococcus neoformans [18]): 0.5 µg/mL (≈ 1.46 µM)
MIC80 ([Candida] auris [36]): 1 µg/mL (≈ 2.91 µM)
